In patent US8993721B2, “Peptides for targeting apoptotic cells and uses thereof” (Kyungpook National University Industry-Academic Cooperation …, priority 2008, dated 2015):
“Also recorded” adds a separate entry of the source. Where no end group is shown, it is not given here.

Assays:
[1] = tested on: apoptotic cells in A549 tumor tissue xenotransplanted under the skin of nude mouse; experiment: Histological analysis of tumor targeting (Example 2); assay type: in vivo; settings: fluorescein-labeled peptide, tail vein; for binding to cells stained by TUNEL (apoptotic cells) in tumor tissue: merge of peptide fluorescence and TUNEL
Protocol: All animal experiments were performed in accordance with the guideline of the Institutional Animal Care and Use Committee. For tumor xenotransplantation, human lung cancer cells (A549, 1×10^7 cells) suspended in RMPI-1640 medium was subcutaneously injected at the right upper or lower limb of a 6-week-old male BALB/c nude mouse (Hyochang Science). Then, 3 weeks were given for the tumor to grow to a size of 0.5 to 1 cm. The A549 cell line used in the experiment was cultured in RMPI-1640 medium containing 10% fetal bovine serum (FBS) in which antibiotics (penicillin and streptomycin) were included. Subculturing was performed every 3 or 4 days.
The peptides used in the present invention were fluorescein-attached form at the N-terminal. They were synthesized according to the standard Fmoc technique and then isolated through HPLC. The peptide synthesis was performed by an expertise company (Peptron).
The peptide of the present invention (ApoPep-1) or a control peptide (amino acid sequence: NSSSVDK), labeled with fluorescein, was injected into the tail vein of a mouse under isoflurane anesthesia, to a final concentration of 50 μM, and 2 hours was given for circulation.
For histological analysis, the mouse was anesthetized and the abdomen was cut open. After sequentially perfusing phosphate-buffered saline (PBS) and 4% paraformaldehyde through the heart, tumor tissues and organs were removed. Each tissue was cryosected and the peptide of the present invention was observed under a fluorescence microscope (Zeiss). Apoptosis in the tumor tissue was confirmed by TUNEL ([…] terminal deoxynucleotidyl transferase-mediated dUTP nick-end labeling) assay according to the instructions of the manufacturer (Chemicon). Fibrinogen staining was performed by immunohistochemistry using anti-fibrinogen antibody (Abcam) and secondary antibody labeled with Alexa 568, a red fluorescent reagent.

[2] = tested on: apoptotic A549 cells; experiment: Competitive inhibition of binding to apoptotic cells by annexin V treatment (Example 3-2); assay type: cell-based, human; settings: annexin V 1000 μM pre-treatment
Protocol: In order to further investigate the binding properties of the peptide of the present invention (ApoPep-1) to apoptotic cells, competitive inhibition by annexin V was measured. To this end, first, apoptotic A549 cells were pre-treated with annexin V, not labeled with fluorescence, at concentrations of 0, 200 and […]. Then, after reacting the cells with fluorescence-labeled annexin V under the same condition as described in Example <3-1>, the binding of the cells was observed under a fluorescence microscope.
Further, apoptotic A549 cells were pre-treated with annexin V, not labeled with fluorescence, at a concentration of 1000 μM. Then, after reacting the cells with fluorescence-labeled peptide under the same condition as described in Example <3-1>, the binding of the cells was observed under a fluorescence microscope.

[3] = tested on: etoposide-treated apoptotic A549 cells; experiment: FACS analysis of binding to apoptotic cells (Example 3-3); assay type: cell-based, human
Protocol: As another way of confirming the binding of the peptide of the present invention to apoptotic cells, apoptotic cells were treated with the peptide of the present invention, labeled with fluorescein, and the binding was confirmed through FACS analysis. […] The apoptotic cells or normal cells were reacted with ApoPep-1 (5 μM), ApoPep-2 (10 μM) or a control peptide at the same concentrations, labeled with fluorescein, at 4° C. for 1 hour. Further, the cells were reacted with fluorescein-labeled annexin V at room temperature for 15 minutes. After staining the cells with propodium iodide (PI) simultaneously, followed by washing with PBS, FACS analysis was performed using a FACS instrument (Becton Dickinson).

[4] = tested on: A549 tumor xenotransplanted in nude mice; experiment: In vivo fluorescence imaging of targeting of apoptotic cells in tumor (Example 4-1); set-up: species or system mouse
Protocol: Nude mice in which tumor was xenotransplanted using A549 cells were prepared as in Example <2-1>. The mice were grouped into a doxorubicin (Sigma) treated group (+Dox) and untreated group (−Dox). The treated group was treated with doxorubicin (10 mg/kg) 3 times, with an interval of 48 hours, a week prior to injection of the peptide. At the tail vein of each mouse, the peptide of the present invention or a control peptide, labeled with fluorescein, was injected at a final concentration of 50 μM, under isoflurane anesthesia. Following the injection, in vivo fluorescence images were obtained every hour, from 1 hour to 6 hours after the injection, using an Optix exPlore instrument (GE Healthcare). The images were standardized using the software provided with the instrument.
Further, when the tumor grew considerably (1 cm or larger in diameter), the peptide of the present invention was injected at the same concentration as above, without doxorubicin treatment, and in vivo fluorescence images were obtained at every given time using an IVIS fluorescence imaging system (Chemipro).

[5] = tested on: necrosis-induced A549 cells (glucose-depleted medium); experiment: Microscopic observation of binding of the peptide to necrotic cells (Example 9-4); assay type: cell-based, human; settings: glucose-depleted medium 24 hours; 10 μM fluorescein-labeled peptide 4° C. 1 hour
Protocol: A549 Cells were cultured in chamber slide (Nunc) and treated with glucose-depleted medium for 24 hours to induce necrosis. The necrosis-induced cells were washed with PBS and blocked with 1% BSA at 37° C. for 30 minutes. Then, the cells were reacted with 10 μM of the peptide labeled with fluorescein, at 4° C. for 1 hour. After washing, the cells were reacted with […] Hoechst […] dye and […] PI at 37° C. for 15 minutes. The cells were washed with PBS and then fixed with 4% paraformaldehyde for 5 minutes.

[6] = tested on: A549 tumor xenotransplanted in nude mice; experiment: In vivo fluorescence imaging of targeting of apoptotic cells in tumor (Example 10); set-up: species or system mouse
Protocol: Nude mice in which tumor was xenotransplanted using A549 cells were prepared as in Example <8-1>. The mice were grouped into a doxorubicin (Sigma) treated group (Dox+) and untreated group (Dox−). The treated group was treated with doxorubicin (5 mg/kg) one time, 12 hours prior to injection of the peptide. At the tail vein of each mouse, the polypeptide of the present invention or a control peptide, labeled with fluorescein or Cy7.5 near-infrared fluorescent dye, was injected at a final concentration of 50 μM, under isoflurane anesthesia. Following the injection, in vivo fluorescence images were obtained 0.5 hours and every hour, from 1 hour to 4 hours, after the injection, using an Optix exPlore instrument (ART). The images were standardized using the software provided with the instrument.

[7] = etoposide 15 hours, peptide 5 μM, 4° C. 1 hour

| Substance | peptide fluorescence observed in the tumor tissue ([1]; 50 μM final, 2 hours circulation, cryosections) | binding to cells not stained by TUNEL (coagulation necrotic site, fibrinogen staining) ([1]; 50 μM, 2 hours) | binding to cells stained by TUNEL (apoptotic cells) in tumor tissue ([1]; 50 μM, 2 hours) | binding of fluorescence-labeled peptide after pre-treatment with unlabeled annexin V [2] | binding to normal cells (FACS) ([3]; A549 cells without etoposide, 4° C. 1 hour) | cells at the early stage of apoptosis bound to the peptide [3, 7] | cells at the later stage of apoptosis bound to the peptide [3, 7] | time until which the tumor fluorescence signal was detected ([4]; doxorubicin treated group, fluorescein-labeled peptide 50 μM) | time at which the fluorescence signal from the tumor tissue was most strongly detected ([4]; doxorubicin treated group, fluorescein-labeled peptide 50 μM, tail vein) | fluorescence signal from the tumor, doxorubicin untreated group ([4]; −Dox, fluorescein-labeled peptide 50 μM) | binding to apoptotic cells versus normal cells (FACS) ([3]; etoposide 20 hours, peptide 10 μM at 4° C. or 37° C. for 1 hour) | time from which fluorescence from the tumor was detected ([4]; large tumor (1 cm or larger in diameter), no doxorubicin, IVIS) | fluorescence signal from the tumor at 5 hours ([4]; large tumor (1 cm or larger), no doxorubicin) | labeling of glucose-depleted necrotic cells [5] | ex vivo fluorescence signal from the kidney ([6]; 4 hours after peptide injection, all the groups, renal clearance) | ex vivo fluorescence signal from the isolated tumor, doxorubicin treated group ([6]; 4 hours after peptide injection, compared to Dox− ApoPep-2 and Dox+ control peptide) | time at which the fluorescence signal from the tumor tissue was most strongly detected ([6]; Cy7.5-labeled, doxorubicin treated group (5 mg/kg, 12 hours before)) | fluorescence signal from the tumor, doxorubicin treated group ([6]; Dox+, Cy7.5-labeled peptide 50 μM) | fluorescence signal from the tumor, doxorubicin untreated group ([6]; Dox−, Cy7.5-labeled peptide 50 μM) | time from which fluorescence from the tumor was detected ([6]; fluorescein-labeled, large tumor (1 cm or larger in diameter), no agent) |
| --- | --- | --- | --- | --- | --- | --- | --- | --- | --- | --- | --- | --- | --- | --- | --- | --- | --- | --- | --- | --- |
| CQRPPR (also: fluorescein or Cy7.5 label) [ApoPep-1, peptide CQRPPR screened for macrophages; used fluorescein- or Cy7.5-labeled] | observed in the tumor tissue | also binds to the cells not stained by TUNEL | binds to the cells stained by TUNEL | not inhibited | almost nonexistent | 90.3% | 7.2% | 5 h | 2 h | weakly detected or almost nonexistent | – | – | – | – | – | – | – | – | – | – |
| CSVAPR (also: fluorescein or Cy7.5 label) [ApoPep-2, peptide CSVAPR screened for endothelial cells; used fluorescein- or Cy7.5-labeled] | – | – | binds to the apoptotic cells in the tumor tissue | – | – | – | – | – | – | – | bound better to the apoptotic cells than to the normal cells | 2 h | strong fluorescence signal | did not bind to the necrosis-induced cells; also recorded: no labeling was observed | strong | strong | 2 h | targeted the tumor tissue | targeting was not observed; also recorded: weakly detected | 2 h |
